Measurements: patent US20240415804A1, “METHOD OF TREATING PANCREATIC CANCER” (University of South Florida, priority 2022, published 2024)

Legend:
miR-155 = miR-155 gene expression in tumors of HPC mice; assay type: in vivo, mouse; conditions: API 25 mg/kg IP 3 times per week for 3-4 weeks, vs vehicle
Protocol: Earlier studies have shown the anti-tumor activity of API in pre-clinical experimental models of cancer^41, 62-68. The inventors have reported that API increased survival and reduced tumor growth in a heterotopic (H) mouse model of PC (HPC)^55. To investigate if API targets miR-155 and regulates SHIP-1 in the TME of an HPC mouse model, HPC mice were treated with API at a dose of 25 mg/kg (IP) 3 times per week for 3-4 weeks. […] All female C57BL/6 mice (6-8 weeks of age) described in this study were purchased from Envigo (Indianapolis, IN, USA) and were acclimatize for one week in a pathogen-free animal facility (University of South Florida (USF) vivarium) before injections with PC cells. To generate heterotopic pancreatic cancer (HPC) models, mice were subcutaneously injected with 1.5×10^5 murine Panc02 (HPC mice) or 5×10^6 murine UN-KC-6141 cells (KC-HPC mice), in sterile 1× phosphate buffer saline (PBS), in the lower ventral abdomen, while control (CTRL) mice received sterile 1×PBS. […] Relative expression of miR-155 was calculated using the comparative […] method normalized to a mouse endogenous control gene snoRNA202 and human endogenous control gene U6 (Assay IDs: 001232 and 001093).

[1] = tested on: MDSC and macrophage subsets in the BM; experiment: Flow cytometry of MDSC and macrophage subsets in the BM of KC-HPC mice; assay type: in vivo, mouse; conditions: API 25 mg/kg IP
From the text: All female C57BL/6 mice (6-8 weeks of age) described in this study were purchased from Envigo (Indianapolis, IN, USA) and were acclimatize for one week in a pathogen-free animal facility (University of South Florida (USF) vivarium) before injections with PC cells. To generate heterotopic pancreatic cancer (HPC) models, mice were subcutaneously injected with 1.5×10^5 murine Panc02 (HPC mice) or 5×10^6 murine UN-KC-6141 cells (KC-HPC mice), in sterile 1× phosphate buffer saline (PBS), in the lower ventral abdomen, while control (CTRL) mice received sterile 1×PBS. Once tumors where palpable, API (25 mg/kg, 100 μL volume) treatments (HPC-API and KC-HPC-API), via intraperitoneal (IP) injections, were started while CTRL, HPC and KC-HPC mice received sterile PBS (vehicle) three times per week until the end of the study^12, 55. The HPC models were euthanized 21-28 days post-injection, while the KC-HPC models were euthanized 16-17 days post-injection. The femur and tibia were cut at the pelvic-hip joint and muscle was removed. The femurs and tibias were cut at the ends and flushed with a 30-gauge needle and 10 cc syringe filled with completed RPMI media until bone was white onto a petri dish. Pelleted bone marrow (BM) cells were treated with Red Blood Cell (RBC) lysis buffer (eBioscience, Waltham, MA, USA), according to the manufacturer's instructions, and then filtered through a […] nylon mesh cell strainer in 1×PBS. All pancreatic tumors were manually cut into ˜1-2 mm^3 fragments with a sterile razor blade and then enzymatically digested with Collagenase, type IV (Sigma-Aldrich), DNase, type IV (Sigma-Aldrich) and Hyaluronidase, Type V (Sigma-Aldrich) in Hank's Balanced Salt Solution for 1 h, spun down and washed as described in previous studies^61. Digested pancreatic tumor samples were treated with RBC lysis buffer and then filtered through a […] nylon mesh cell strainer in 1×PBS. Bone marrow and digested pancreatic tumor single cell suspensions were counted with a hemocytometer and then resuspended in 3% FBS/PBS. BM and digested pancreatic tumor cells (1×10^6) were Fc Blocked (anti-mouse CD16/CD32) and then surface stained for 30 min on ice protected from light with fluorescent anti-mouse antibodies including, CD11b-APC, Ly6C-PE/Cy7, Ly6G-PerCP, F4/80-BV650, MHC—II-BV605, CD206-FITC and CD40-PE/Cy5 along with isotype control antibodies (Biolegend, San Diego, CA, USA) to detect MDSC and macrophage subsets. Digested pancreatic tumor cells (1×10^6) were also Fc Blocked and then surface stained with fluorescent anti-mouse antibodies including CD3-FITC, CD8-PercP/Cy5.5, CD4-APC/Cy7, and CD40L-APC along with isotype control antibodies (Biolegend) to detect CD8^+ T cells. Subsequently, all samples were fixed with 2% paraformaldehyde for 15 min on ice protected from light. Acquisition of samples was performed using a flow cytometer BD LSRII (BD Biosciences Immunocytometry Systems). Data analysis was performed using FlowJo v10.8 software (TreeStar Inc.).

With O=c1cc(-c2ccc(O)cc2)oc2cc(O)cc(O)c12 [API, 40,5,7-Trihydroxyflavone, 5,7-Dihydroxy-2-(4-hydroxyphenyl)-4-benzopyrone] the “miR-155 gene expression in tumor” value (miR-155) was “significantly reduced”, the “G-MDSC absolute cell numbers in BM” value ([1]; vs KC-HPC mice) was “significantly lowered” and the “M1 macrophage percentages in BM” value ([1]; vs KC-HPC mice) was “significantly increased”. For the same compound, the “M1 macrophages absolute cell numbers in BM” value ([1]; vs KC-HPC mice) was “no significant changes”, the “M2 macrophage percentages in BM” value ([1]; vs KC-HPC mice) was “decreased” and the “M2 macrophages absolute cell numbers in BM” value ([1]; vs KC-HPC mice) was “no significant changes”. For the same compound, the “M-MDSC absolute cell numbers in BM” value ([1]; vs KC-HPC mice) was “significantly lowered”, the “proportions of G-MDSCs in BM” value ([1]; vs vehicle treated KC-HPC mice) was “significantly reduced” and the “proportions of M-MDSCs in BM” value ([1]; vs vehicle treated KC-HPC mice) was “without any significant change”.
